Source: PubChem BioAssay AID1033 (Sanford-Burnham Center for Chemical Genomics, 2008)
The source made the active and inactive calls. How the calls were made is not given here.

These molecules were tested against Chaperone protein DnaK (Escherichia coli (strain K12)) (UniProt P0A6Y8) (assay: binders of DnaK substrate-binding domain, biophysical, NMR, chaperone (AID 1033)). Details: Purified DnaK SBD, NMR ligand binding.
Chain of Chaperone protein DnaK (Escherichia coli (strain K12)) (P0A6Y8 whole entry, looked up, the tested form may be a part): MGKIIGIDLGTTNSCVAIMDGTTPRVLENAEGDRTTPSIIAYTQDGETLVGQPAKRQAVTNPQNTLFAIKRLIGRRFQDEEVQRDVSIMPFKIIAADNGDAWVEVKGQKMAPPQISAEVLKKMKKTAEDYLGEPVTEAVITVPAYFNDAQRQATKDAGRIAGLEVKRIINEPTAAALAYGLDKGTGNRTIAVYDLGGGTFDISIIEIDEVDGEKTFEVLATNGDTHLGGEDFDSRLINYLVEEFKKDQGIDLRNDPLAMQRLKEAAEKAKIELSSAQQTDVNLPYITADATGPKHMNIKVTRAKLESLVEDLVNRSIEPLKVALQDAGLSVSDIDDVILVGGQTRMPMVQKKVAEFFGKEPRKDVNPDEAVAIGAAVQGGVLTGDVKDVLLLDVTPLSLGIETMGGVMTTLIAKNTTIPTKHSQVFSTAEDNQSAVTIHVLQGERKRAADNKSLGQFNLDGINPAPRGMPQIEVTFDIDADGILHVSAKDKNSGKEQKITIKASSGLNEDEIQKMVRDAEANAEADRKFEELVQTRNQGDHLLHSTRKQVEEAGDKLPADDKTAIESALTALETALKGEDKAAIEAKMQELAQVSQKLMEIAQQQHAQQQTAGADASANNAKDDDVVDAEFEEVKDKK
CC(=O)Oc1c(-c2ccccc2)oc2c(CC=C(C)C)c3c(c(OC(C)=O)c2c1=O)C=CC(C)(C)O3 was tested, and the Kd was > 4 mM (inactive).
In the case of c1ccc(CCNc2ncnc3nc[nH]c23)cc1, the Kd is reported as > 4 mM (inactive).
In the case of Cc1ccc(SCCN2C(=O)NC(C)(C)C2=O)cc1, the Kd is reported as > 4 mM (inactive).
O=C1NC(=O)/C(=C/c2ccc(O)cc2)N1 was tested, and the Kd was > 4 mM (inactive).
In the case of Cc1nc2ccccc2c(=O)n1N1C(=O)CCCC1=O, the Kd is reported as > 4 mM (inactive).
With CCOC(=O)c1c(SC)nc(=O)[nH]c1C the Kd was > 4 mM (inactive).
For COC(=O)Nc1nnc(-c2ccncc2)s1, the Kd was > 4 mM (inactive).
In the case of O=C(O)c1cnn2ccccc12, the Kd is reported as > 4 mM (inactive).
C[C@@H]1[C@H]2[C@H](O[C@@H]3O[C@H](CO)[C@@H](O)[C@H](O)[C@H]3O)OC=C(C(=O)O)[C@H]2C[C@@H]1O was tested, and the Kd was > 4 mM (inactive).
For COC(=O)Nc1nc2c(C)cccc2s1, the Kd was > 4 mM (inactive).
In the case of O=C1CC(=O)N(c2cccc(Cl)c2)N1, the Kd is reported as > 4 mM (inactive).
For Cc1cc(C)c2nncn2n1, the Kd was > 4 mM (inactive).
CCC(=O)NC(=S)Nc1ccc(O)cc1 was tested, and the Kd was > 4 mM (inactive).
With Nc1ccc(NC(=O)c2ccco2)c(Cl)c1 the Kd was > 4 mM (inactive).
For Cc1cccc(NC(=O)c2ccc(=O)[nH]n2)c1, the Kd was > 4 mM (inactive).
In the case of C[C@@H]1O[C@@H](O[C@H]2CC[C@]3(C=O)C4CC[C@]5(C)[C@@H](C6=CC(=O)OC6)CC[C@]5(O)C4CC[C@]3(O)C2)[C@H](O)[C@H](O)[C@H]1O (some centres undefined), the Kd is reported as > 4 mM (inactive).
For COc1ccc(/C=C2/NC(=S)NC2=O)cc1, the Kd was > 4 mM (inactive).
COc1ccc(-c2cc(=O)c3c(OC)c(OC)c(OC)c(OC)c3o2)cc1 was tested, and the Kd was > 4 mM (inactive).
For OCc1ccc2c(c1)CCO2, the Kd was > 4 mM (inactive).
Cc1cc(NC(=O)c2cc(C)on2)no1 was tested, and the Kd was > 4 mM (inactive).
With O=C(Nc1ccc(-c2nnco2)cc1)c1ccccc1 the Kd was > 4 mM (inactive).
For O=C1CCC([N+](=O)[O-])C(c2ccccc2F)N1 (centres undefined), the Kd was > 4 mM (inactive).
With Cn1ncc(C(=O)NC2CCCCC2)c1Cl the Kd was > 4 mM (inactive).
In the case of CN(C)C(=S)Nc1nc2ccccc2s1, the Kd is reported as > 4 mM (inactive).
With COc1c2c(c(CC=C(C)C)c3oc(=O)c(-c4ccc(O)cc4)c(O)c13)OC(C)(C)C=C2 the Kd was > 4 mM (inactive).
For O=C(c1ccco1)N1C(=O)c2cccc3cccc1c23, the Kd was > 4 mM (inactive).
CCN(CC)c1nc2n(c(=O)n1)CCO2 was tested, and the Kd was > 4 mM (inactive).
With Nc1ncnc2c1ncn2CCN1CCCCC1 the Kd was > 4 mM (inactive).
With O=C(NN1CCOCC1)c1ccccc1F the Kd was > 4 mM (inactive).
With O=C(O)C1CCCCN1Cc1ccccc1 (centres undefined) the Kd was > 4 mM (inactive).
Cc1ccc(/C=N/NC(N)=O)o1 was tested, and the Kd was > 4 mM (inactive).
C=CC(C)(O)CC/C=C(\C)CCC=C(C)C (centres undefined) was tested, and the Kd was > 4 mM (inactive).
In the case of CC1(C)C=CC(=O)[C@@]2(C)C1CC(=O)[C@]1(C)C2CC[C@@]2(C)[C@H](c3ccoc3)OC(=O)C3OC321 (some centres undefined), the Kd is reported as > 4 mM (inactive).
Cc1ccc(N2C(=O)CCC2=O)cc1 was tested, and the Kd was > 4 mM (inactive).
In the case of OCc1ccc2occc2c1, the Kd is reported as > 4 mM (inactive).
COn1c(=O)c(C)[n+]([O-])c2ccccc21 was tested, and the Kd was > 4 mM (inactive).
For CC(=O)C1=C(O)C(=O)NC1c1ccccc1 (centres undefined), the Kd was > 4 mM (inactive).
In the case of Cn1nc(C(=O)NCc2cccnc2)c2ccccc2c1=O, the Kd is reported as > 4 mM (inactive).
For Cc1cc(N)ccc1NC(=O)c1ccco1, the Kd was > 4 mM (inactive).
In the case of Cc1noc(C)c1C(=O)Nc1ccccn1, the Kd is reported as > 4 mM (inactive).
For Cc1cc(C)n(/N=C\c2cccs2)c(=O)c1C(N)=O, the Kd was > 4 mM (inactive).
With O=C(O)C1COc2ccccc2O1 (centres undefined) the Kd was > 4 mM (inactive).
In the case of COc1ccc(C2(CN)CCOCC2)cc1OC, the Kd is reported as > 4 mM (inactive).
C=C[C@](C)(O)CCC=C(C)C was tested, and the Kd was > 4 mM (inactive).
In the case of O=S1(=O)CCC(N2CCCCC2)C1 (centres undefined), the Kd is reported as > 4 mM (inactive).
With CN(C(=O)NC1CCS(=O)(=O)C1)C1CCCCC1 (centres undefined) the Kd was > 4 mM (inactive).
For O=C(Nc1ccon1)c1cccc(Cl)c1, the Kd was > 4 mM (inactive).
With CC(=O)Nc1nnc(-c2ccccn2)o1 the Kd was > 4 mM (inactive).
CC1CCC2(OC1)OC1CC3C4CCC5C[C@@H](O)CCC5(C)C4=CCC3(C)C1[C@@H]2C (some centres undefined) was tested, and the Kd was > 4 mM (inactive).
For CCN(CC)S(=O)(=O)c1cccc2nsnc12, the Kd was > 4 mM (inactive).
With Cn1ccnc1SCc1cc(=O)[nH]c2ccccc12 the Kd was > 4 mM (inactive).
With CCOC(=O)c1c(C)nc2c(C#N)cnn2c1C the Kd was > 4 mM (inactive).
With O=C(O)Cn1nnn(-c2ccccc2)c1=S the Kd was > 4 mM (inactive).
Clc1ccccc1-c1nc(-c2cccnc2)no1 was tested, and the Kd was > 4 mM (inactive).
With CC1=NN2C(=N)/C(=C\c3cccs3)C(=O)N=C2S1 the Kd was > 4 mM (inactive).
CC1(C)C2CC(=O)[C@]3(C)C(CC[C@@]4(C)[C@H](c5ccoc5)OC(=O)[C@H]5O[C@]543)[C@@]2(C)C=C[C@@H]1O (some centres undefined) was tested, and the Kd was > 4 mM (inactive).
Cc1csc2nc(=O)c3ccccc3n12 was tested, and the Kd was > 4 mM (inactive).
In the case of CC(C)(C)Cc1nc(-c2ccccn2)no1, the Kd is reported as > 4 mM (inactive).
Cc1ccc(NC(=O)c2ccccc2)s1 was tested, and the Kd was > 4 mM (inactive).
